Laboratory results as given in ChEMBL document CHEMBL1133817, “Discovery of novel, orally active dual NK1/NK2 antagonists” (Bioorg Med Chem Lett, 2001).
pKi: −log10 of the molar value.

Tests used:
Rattus norvegicus [1] = experiment: Area under curve by intravenous administration at a dose of 10 uM/kg in rat was determined; assay type: ADME, organism-based; conditions: in vivo
[2] = Maximum concentration by oral administration at a dose of 100 umol/kg in rat was determined; assay type: ADME, organism-based; set-up: dose 100 umol/kg, route oral; conditions: in vivo
[3] = Tmax by oral administration at a dose of 100 uM/kg in rat was determined; assay type: ADME, organism-based; conditions: in vivo
[4] = Tmax by oral administration at a dose of 10 uM/kg in dog was determined; assay type: ADME, organism-based, Canis lupus familiaris; conditions: in vivo
Substance-K receptor = target: T1, Substance-K receptor (Homo sapiens, UniProt P21452); experiment: Binding affinity against human cloned Tachykinin receptor 2 expressed in MEL cells; assay type: cell-based
T1 sequence (P21452 whole entry): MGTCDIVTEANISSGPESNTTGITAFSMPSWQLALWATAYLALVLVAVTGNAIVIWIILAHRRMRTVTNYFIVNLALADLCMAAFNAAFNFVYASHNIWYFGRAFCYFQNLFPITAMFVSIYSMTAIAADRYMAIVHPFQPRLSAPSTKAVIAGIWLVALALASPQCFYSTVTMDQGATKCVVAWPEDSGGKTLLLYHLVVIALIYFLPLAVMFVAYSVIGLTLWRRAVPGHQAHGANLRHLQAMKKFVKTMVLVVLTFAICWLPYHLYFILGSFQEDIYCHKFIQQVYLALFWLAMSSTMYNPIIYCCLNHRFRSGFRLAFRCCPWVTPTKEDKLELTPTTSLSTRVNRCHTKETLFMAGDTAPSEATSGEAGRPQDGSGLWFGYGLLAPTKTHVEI

[5] = Half life period at a dose of 10 uM/kg in rat was determined; assay type: ADME, organism-based; conditions: in vivo
[6] = Bioavailability by oral administration at a dose of 10 uM/kg in dog was determined; assay type: ADME, organism-based, Canis lupus familiaris; conditions: in vivo, read-out: Bioavailabiility
[7] = Volume distribution at a dose of 10 uM/kg in rat was determined; assay type: ADME, organism-based; conditions: in vivo, read-out: Vdss
[8] = Maximum concentration by oral administration at a dose of 10 umol/kg in dog was determined; assay type: ADME, organism-based, Canis lupus familiaris; set-up: dose 10 umol/kg, route oral; conditions: in vivo
Neuromedin-K receptor = target: T2, Neuromedin-K receptor (Homo sapiens, UniProt P29371); experiment: Binding affinity against human cloned Tachykinin receptor 3 expressed in MEL cells; assay type: cell-based
T2 sequence (P29371 whole entry): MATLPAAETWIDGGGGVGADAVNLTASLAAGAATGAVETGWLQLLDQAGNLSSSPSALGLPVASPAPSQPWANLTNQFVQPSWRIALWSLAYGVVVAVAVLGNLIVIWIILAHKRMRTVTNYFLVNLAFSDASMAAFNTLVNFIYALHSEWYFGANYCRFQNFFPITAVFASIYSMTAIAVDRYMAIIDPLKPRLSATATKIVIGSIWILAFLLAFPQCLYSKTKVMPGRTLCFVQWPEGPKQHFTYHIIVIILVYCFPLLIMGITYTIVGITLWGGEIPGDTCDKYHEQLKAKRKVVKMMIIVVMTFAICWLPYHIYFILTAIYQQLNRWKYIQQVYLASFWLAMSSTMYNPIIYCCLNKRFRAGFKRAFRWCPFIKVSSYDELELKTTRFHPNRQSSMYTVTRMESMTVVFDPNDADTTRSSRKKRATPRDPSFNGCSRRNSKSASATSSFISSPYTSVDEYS

[9] = Half-life period by oral administration at a dose of 10 uM/kg in dog was determined; assay type: ADME, organism-based, Canis lupus familiaris; conditions: in vivo
Substance-P receptor = Substance-P receptor (Homo sapiens, UniProt P25103); experiment: Binding affinity against human cloned Tachykinin receptor 1 expressed in MEL cells; assay type: cell-based
[10] = Plasma clearance in rat at a dose of 10 uM/kg in rat was determined; assay type: ADME, organism-based; conditions: read-out: Clp
[11] = Bioavailability by oral administration at a dose of 100 uM/kg in rat was determined; assay type: ADME, organism-based; conditions: in vivo, read-out: Bioavailabiility
Canis familiaris [12] = experiment: Area under curve by oral administration at a dose of 10 uM/kg in dog was determined; assay type: ADME, organism-based, Canis lupus familiaris; conditions: in vivo
[13] = Volume distribution at a dose of 1 uM/kg in dog was determined; assay type: ADME, organism-based, Canis lupus familiaris; conditions: in vivo, read-out: Vdss
Canis familiaris [14] = experiment: Area under curve by intravenous administration at a dose of 1 uM/kg in dog was determined; assay type: ADME, organism-based, Canis lupus familiaris; conditions: in vivo
Rattus norvegicus [15] = experiment: Area under curve by oral administration at a dose of 100 uM/kg in rat was determined; assay type: ADME, organism-based; conditions: in vivo
[16] = Half life period at a dose of 1 uM/kg in dog was determined; assay type: ADME, organism-based, Canis lupus familiaris; conditions: in vivo

Chain of Substance-P receptor (P25103 whole entry): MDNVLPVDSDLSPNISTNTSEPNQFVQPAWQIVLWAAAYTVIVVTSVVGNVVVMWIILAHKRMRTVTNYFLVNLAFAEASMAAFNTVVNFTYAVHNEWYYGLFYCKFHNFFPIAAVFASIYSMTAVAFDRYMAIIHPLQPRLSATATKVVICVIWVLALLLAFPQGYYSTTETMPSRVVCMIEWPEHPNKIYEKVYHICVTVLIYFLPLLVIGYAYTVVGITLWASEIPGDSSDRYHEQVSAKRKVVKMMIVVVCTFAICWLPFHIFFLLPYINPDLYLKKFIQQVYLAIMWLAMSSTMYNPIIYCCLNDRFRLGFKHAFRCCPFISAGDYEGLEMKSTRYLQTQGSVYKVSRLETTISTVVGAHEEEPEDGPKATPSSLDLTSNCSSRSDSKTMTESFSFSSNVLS

AUC (Rattus norvegicus [1]): 3200 ng·h/mL | Cmax [2]: 421 ng/mL | Tmax [3]: 2 h | Tmax [4]: 2 h | pKi (Substance-K receptor): 9.22 | half-life [5]: 1.8 h | bioavailability [6]: 18% | Vd [7]: 3.7 L/kg | Cmax [8]: 364 ng/mL | pKi (Neuromedin-K receptor): 7.13 | half-life [9]: 2.3 h | pKi (Substance-P receptor): 10.00 | clearance [10]: 32.6 mL/min/kg | bioavailability [11]: 9% | AUC (Canis familiaris [12]): 2000 ng·h/mL | Vd [13]: 2 L/kg | AUC (Canis familiaris [14]): 1100 ng·h/mL | AUC (Rattus norvegicus [15]): 3010 ng·h/mL | half-life [16]: 3.8 h
Structure (SMILES): CN(C[C@@H](CCN1CCC(c2ccccc2[S@+](C)[O-])CC1)c1ccc(Cl)c(Cl)c1)C(=O)c1cc(C#N)cc2ccccc12 (stereo in doubt)
